Experimental data published in PubChem BioAssay AID2060904 (Molecular Pharmacology Branch, DTP, NCI, 2025).

System: 349418-098-R-PDC complex spheroid viability
Test: Anticancer human tumor 349418-098-R-PDC patient-derived lung adenocarcinoma cell line growth inhibition [RAS]
Settings: for viability, T/C: stronger effect = lower value; active means viability on the fitted dose curve at most 10% of control; inactive means the rest
Excerpt: RAS pathway inhibitors in Combinations in Complex Spheroids
A high-throughput screen of multi-cell type tumor spheroids was designed to identify active combinations of RAS pathway inhibitors and targeted small molecules. Complex spheroids include a stromal component modeled by human endothelial cells (HUVEC) and fibroblasts modeled by human mesenchymal stem cells (MSCs). The concentration ranges selected for each drug and investigational agent were based upon clinically achievable concentrations if the clinical Cmax of the agent was known.
Compounds. The drugs and investigational agents: abemaciclib (NSC768073), cobimetinib (NSC768068), divarasib (GDC6063, NSC841802), docetaxel (NSC628503), GDC-1971 (RLY-1971, NSC841576), gemcitabine (NSC613327), inavolisib (NSC800729), ipatasertib (NSC767898), KB-0742 (NSC834161), MRTX-1133 (NSC836407), osimertinib (NSC779217), RMC-4630 (NSC839698), RMC-6236 (NSC851965), RMC-6291 (NSC852671), Ro-3306 (NSC812927), sapanisertib (NSC764658), SN-38 (NSC673596), staurosporine (NSC755774), SY5609 (NSC837396), and tovorafenib (DAY101, NSC766906), were obtained from the National Cancer Institute (NCI) Developmental Therapeutics Program Chemical Repository. The FDA-approved anticancer drug set is available from the NCI Developmental Therapeutics Program. […] The stock solutions were prepared in dimethyl sulfoxide (DMSO, Sigma-Aldrich, St. Louis, MO, cat. D2650) at 800-fold the tested concentration and stored at -70 degrees C prior to their use. All drugs and investigational agents were tested over a range starting from a high concentration at or near the clinical Cmax and decreasing in half-log increments. If the clinical Cmax for an agent had not been determined, the highest concentration tested was 10 microM.
Cell Culture. All cells were maintained in an incubator at 37 degrees C and 5% CO2 with 95% humidity. The PDC lines were cultured according to standard operating procedures established by the NCI PDMR. All PDCs were thawed and cultured in Matrigel-coated flasks prepared with a working solution of 1X Ham's F-12 nutrient mix, without supplementation (Invitrogen, Waltham, MA, cat. 11765054), 100 U/mL penicillin-streptomycin (Invitrogen, cat. 15140122), and 2.5% Matrigel (Corning Inc., Corning, NY, cat. 354248) for the first three passages. The 362531-283-R-J2-PDC and 782815-120-R-J1-PDC lines were cultured in 6C/Colon 1B media, which includes advanced DMEM/F-12 (Thermo Fisher Scientific, cat. 12634028), 10 mM HEPES (Thermo Fisher Scientific, cat. 15630080), 1X GlutaMAX supplement (Thermo Fisher Scientific, cat. 35050061), 0.1 mg/mL primocin (InvivoGen, San Diego, CA, cat. ant-pm-2), 10% defined fetal bovine serum, heat inactivated (HyClone Laboratories Inc., Logan, UT, cat. SH30070.03HI), 50% L-WRN conditioned media (ATCC, cat. CRL-3276), 1.25 mM N-Acetyl-L-cysteine (Sigma-Aldrich, cat. A9165), 10 mM nicotinamide (Sigma-Aldrich, cat. N0636), 1X B-27 supplement (Thermo Fisher Scientific, cat. 17504044), 1X N-2 supplement (Thermo Fisher Scientific, cat. 17502048), 50 ng/mL human EGF (Thermo Fisher Scientific, cat. PHG0311), and 10 microM Y-27632 dihydrochloride (Tocris Bioscience, cat. 1254). The K12877-001-R-J1-PDC line was cultured in 6I media, which includes all 6C/Colon 1B media plus 10 ng/mL human FGF-10 (PeproTech, cat. 100-26), 1 ng/mL human FGF-2 (PeproTech, cat. 100-18B), 1 µM prostaglandin E2 (Tocris Bioscience, cat. 2296), […] hydrocortisone (Sigma-Aldrich, cat. H4001), and […] bovine insulin (Sigma-Aldrich, cat. I6634). The K86415-001-R-J1-PDC line was cultured in 6D media, which includes all 6C/Colon 1B media components minus the L-WRN conditioned media. The 485176-168-R4-J1-PDC was cultured in PANC media, which includes all 6C/Colon 1B media plus 100 ng/mL human FGF-10 (PeproTech, cat. 100-26), 500 nM SB-431542 (Selleckchem, cat. S1067), and 10 nM gastrin (Tocris Bioscience, cat. 3006). […]
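Further: spheroids exposed to compound for seven days before viability readout.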

CC1(O)CCCC1n1c(=O)c(C(F)F)cc2cnc(NC3CCN(S(C)(=O)=O)CC3)nc21 (centres undefined)
87.8 nM [middle of 4 runs]: IC50 (curve of compound)
2.67% [middle of 4 runs]: viability, T/C (compound 10 µM)
inactive: viability, T/C (compound 0.0316 µM) 79.5% [middle of 4 runs] | viability, T/C (compound 0.1 µM) 43% [middle of 4 runs] | viability, T/C (compound 0.316 µM) 26.1% [middle of 4 runs] | viability, T/C (compound 1 µM) 22.1% [middle of 4 runs] | viability, T/C (compound 3.16 µM) 19.5% [middle of 4 runs]

CCN1CCN(Cc2ccc(Nc3ncc(F)c(-c4cc(F)c5nc(C)n(C(C)C)c5c4)n3)nc2)CC1
inactive: viability, T/C (compound 0.01 µM) 59.8% [middle of 4 runs] | viability, T/C (compound 0.1 µM) 28.7% [middle of 4 runs] | viability, T/C (compound 0.316 µM) 23.5% [middle of 4 runs] | viability, T/C (compound 1 µM) 17.6% [middle of 4 runs]

NC1c2ccccc2OC12CCN(c1cnc3c(N4CCCc5ncccc54)n[nH]c3n1)CC2 (centres undefined) + CCn1c(-c2cccnc2C(C)OC)c2c3cc(ccc31)N1CCOC(CC(NC(=O)C(C(C)C)N(C)C(=O)C3(F)CCN(C(=O)C#CC(C)(C)N(C)C)CC3)C(=O)N3CCCC(N3)C(=O)OCC(C)(C)C2)C1
inactive: viability, T/C (second compound 0.000949 µM, first compound 0.0316 µM) 78.4% | viability, T/C (second compound 0.000949 µM, first compound 0.1 µM) 93.4% | viability, T/C (second compound 0.000949 µM, first compound 0.316 µM) 90.7% | viability, T/C (second compound 0.000949 µM, first compound 1 µM) 97% | viability, T/C (second compound 0.000949 µM, first compound 3.16 µM) 108% | viability, T/C (second compound 0.000949 µM, first compound 10 µM) 75.5% | viability, T/C (second compound 0.003 µM, first compound 0.0316 µM) 97.2% | viability, T/C (second compound 0.003 µM, first compound 0.1 µM) 95.3% | viability, T/C (second compound 0.003 µM, first compound 0.316 µM) 91% | viability, T/C (second compound 0.003 µM, first compound 1 µM) 99.4% | viability, T/C (second compound 0.003 µM, first compound 3.16 µM) 98.5% | viability, T/C (second compound 0.003 µM, first compound 10 µM) 71.7% | viability, T/C (second compound 0.00949 µM, first compound 0.0316 µM) 108% | viability, T/C (second compound 0.00949 µM, first compound 0.1 µM) 95.4% | viability, T/C (second compound 0.00949 µM, first compound 0.316 µM) 90.3% | viability, T/C (second compound 0.00949 µM, first compound 1 µM) 116% | viability, T/C (second compound 0.00949 µM, first compound 3.16 µM) 93.6% | viability, T/C (second compound 0.00949 µM, first compound 10 µM) 59.8% | viability, T/C (second compound 0.03 µM, first compound 0.0316 µM) 93.9% | viability, T/C (second compound 0.03 µM, first compound 0.1 µM) 102% | viability, T/C (second compound 0.03 µM, first compound 0.316 µM) 115% | viability, T/C (second compound 0.03 µM, first compound 1 µM) 96.8% | viability, T/C (second compound 0.03 µM, first compound 3.16 µM) 98.1% | viability, T/C (second compound 0.03 µM, first compound 10 µM) 85% | viability, T/C (second compound 0.0949 µM, first compound 0.0316 µM) 105% | viability, T/C (second compound 0.0949 µM, first compound 0.1 µM) 103% | viability, T/C (second compound 0.0949 µM, first compound 0.316 µM) 116% | viability, T/C (second compound 0.0949 µM, first compound 1 µM) 91.3% | viability, T/C (second compound 0.0949 µM, first compound 3.16 µM) 89.7% | viability, T/C (second compound 0.0949 µM, first compound 10 µM) 59.3% | viability, T/C (second compound 0.3 µM, first compound 0.0316 µM) 84.8% | viability, T/C (second compound 0.3 µM, first compound 0.1 µM) 68.8% | viability, T/C (second compound 0.3 µM, first compound 0.316 µM) 102% | viability, T/C (second compound 0.3 µM, first compound 1 µM) 90.8% | viability, T/C (second compound 0.3 µM, first compound 3.16 µM) 85.2% | viability, T/C (second compound 0.3 µM, first compound 10 µM) 61.4%
> 10 µM: IC50 (curve of first compound, second compound 0.000949 µM) | IC50 (curve of first compound, second compound 0.003 µM) | IC50 (curve of first compound, second compound 0.00949 µM) | IC50 (curve of first compound, second compound 0.03 µM) | IC50 (curve of first compound, second compound 0.0949 µM) | IC50 (curve of first compound, second compound 0.3 µM)

Cc1nc(N2CCC3(CC2)COC(C)C3N)c(CO)nc1Sc1ccnc(N)c1Cl (centres undefined)
inactive: viability, T/C (compound 0.0316 µM) 91.6% [middle of 4 runs] | viability, T/C (compound 0.1 µM) 102% [middle of 4 runs] | viability, T/C (compound 0.316 µM) 101% [middle of 4 runs] | viability, T/C (compound 3.16 µM) 100% [middle of 4 runs] | viability, T/C (compound 10 µM) 95.3% [middle of 4 runs]
> 10 µM: IC50 (curve of compound)
